# According to patent US7915012B2, “Methods for screening for inhibitors of TRPV2 activation” (Korea University Industry and Academic Collaboration …, priority 2008, dated 2011):
# Entries after “also recorded” stand apart in the source; their conditions may differ.
# Key:
# rTRPV4 = molecular target: T1, rTRPV4 (Rattus norvegicus, UniProt Q9ERZ8); test: Fluo-3 calcium imaging in TRPV4 transfected HEK293T cell line; assay type: cell-based; details: 100 μM probenecid
# T1 construct: expressed in transfected cells; host or cells: HEK293T (ATCC CRL-11268)
# T1 sequence (Q9ERZ8 whole entry): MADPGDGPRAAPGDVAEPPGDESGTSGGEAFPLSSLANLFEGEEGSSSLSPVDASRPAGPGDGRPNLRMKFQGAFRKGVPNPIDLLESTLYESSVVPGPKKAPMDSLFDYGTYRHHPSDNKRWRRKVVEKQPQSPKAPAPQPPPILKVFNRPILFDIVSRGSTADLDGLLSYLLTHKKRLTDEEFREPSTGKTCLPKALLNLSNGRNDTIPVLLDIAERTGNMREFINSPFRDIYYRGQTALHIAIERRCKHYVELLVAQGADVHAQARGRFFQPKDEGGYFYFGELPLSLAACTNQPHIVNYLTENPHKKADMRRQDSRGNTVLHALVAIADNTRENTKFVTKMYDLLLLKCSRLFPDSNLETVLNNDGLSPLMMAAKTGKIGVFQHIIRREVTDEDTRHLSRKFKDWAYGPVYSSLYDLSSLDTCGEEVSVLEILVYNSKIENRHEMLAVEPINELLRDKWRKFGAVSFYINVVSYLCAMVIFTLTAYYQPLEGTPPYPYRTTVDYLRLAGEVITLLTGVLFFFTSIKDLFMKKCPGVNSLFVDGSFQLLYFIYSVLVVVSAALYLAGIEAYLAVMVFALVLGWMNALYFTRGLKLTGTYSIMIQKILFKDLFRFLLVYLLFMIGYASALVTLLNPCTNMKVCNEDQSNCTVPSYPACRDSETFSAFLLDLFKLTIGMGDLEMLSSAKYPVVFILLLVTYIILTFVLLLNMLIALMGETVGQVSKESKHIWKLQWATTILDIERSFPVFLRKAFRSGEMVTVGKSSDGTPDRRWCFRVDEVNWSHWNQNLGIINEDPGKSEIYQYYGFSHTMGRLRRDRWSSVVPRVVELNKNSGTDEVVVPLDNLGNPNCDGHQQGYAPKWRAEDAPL
# Procedure: (§1) HEK293T cell line (ATCC CRL-1 1268) was transiently transfected with plasmid DNA containing polynucleotide encoding […] (SEQ. ID. NO: 1), rTRPV2 (SEQ. ID. NO: 2), mTRPV3 (SEQ. ID. NO: 3), rTRPV4 (SEQ. ID. NO: 4), mTRPM8 (SEQ. ID. NO: 5) or mTRPA1 (SEQ. ID. NO: 6).
# (§2) Particularly, the HEK293T cell line was transiently transfected with individual TRP channel plasmid (pcDNA3.1 containing polynucleotide encoding rTRPV1, rTRPV2, mTRPV3, rTRPV4, mTRPM8 or mTRPA1), and 600 ng/well of pCDNA3 (Invitrogen Corp., USA; containing green fluorescent protein (GFP) cDNA) using Fugene6 (Roche Diagnostics, USA) according to manufacturer's instruction. The transformed cells were cultured in DMEM/F12 containing 10% FBS and 1% penicillin/streptomycin in a CO2 incubator for 24 hours. The cells were replated onto poly-L-lysine-coated glass coverslips, followed by further culture for 10-24 hours.
# Particularly, the transfected cell line of Example <3-1> and Example <3-2> was loaded with Fluo-3AM (5 μM; Sigma Aldrich, USA) in the bath solution (140 mM NaCl, 5 mM KCl, 2 mM CaCl2, 1 mM MgCl2, 10 mM HEPES; adjusted to pH 7.4 with NaOH) containing 0.02% pluronic acid (Invitrogen, USA) at 37° C. for 1 hour. […]
# trigeminal neurons [1] = test: Whole-cell voltage-clamp recording in trigeminal neurons; assay type: cell-based, ICR mice; details: 100 μM probenecid
# trigeminal neurons [2] = test: Calcium imaging of cultured trigeminal neurons; assay type: cell-based, ICR mice; details: 100 μM probenecid
# Procedure: Trigeminal ganglia were dissected out of decapitated adult ICR mice in cold PBS and treated with 1.5 mg/ml of collagenase/dispase (Roche Diagnostics, USA) at 37° for 45 min, and then treated with 0.25% trypsin (Invitrogen, USA) for 15 min. The trigeminal neurons prepared thereby were then plated onto poly-L-lysinecoated coverslips in DMEM/F12 containing 10% FBS, 1% penicillin/streptomycin and 5 ng/ml of 2.5S NGF (Invitrogen, USA), followed by culture in a CO2 incubator for 48-72 hours.
# Calcium imaging was performed with a confocal microscope (LSM5 Pascal, Carl Zeiss, Germany), and time-lapse images (excitation 488 nm/emission 514 nm) were collected every 3 seconds using Carl Zeiss ratio tool software (Carl Zeiss, Germany).
# The trigeminal neurons prepared by the same manner as described in Example 2 were delayed-treated with 100 μM probenecid or 4 kinds of TRP activators: TRPM8 activator menthol 400 μM, TRPA1 activator cinnamaldehyde (MP Biomedicals, USA) 300 μM, TRPV1 activator capsaicin (Sigma-Aldrich, USA) 2 μM and TRPV1-3 activator 2-APB 300 μM.
# The trigeminal neurons prepared by the same manner as described in Example 2 were treated with 300 μM 2-APB+100 μM probenecid, 300 μM 2-APB+2 μM capsaicin, 300 μM 2-APB+300 μM cinnamaldehyde+2 μM capsaicin, 300 μM 2-APB +2 μM capsaicin +100 μM probenecid, 300 μM 2-APB +400 μM menthol and 300 μM 2-APB, respectively.
# rTRPV2 = molecular target: T2, rTRPV2 (Rattus norvegicus, UniProt Q9WUD2, A713V/L151P/T158I); test: Fluo-3 calcium imaging in TRPV2 transfected HEK293T cell line; assay type: cell-based
# T2 construct: expressed in transfected cells; host or cells: HEK293T (ATCC CRL-11268)
# T2 sequence (Q9WUD2 1-761 L151P/T158I/A713V): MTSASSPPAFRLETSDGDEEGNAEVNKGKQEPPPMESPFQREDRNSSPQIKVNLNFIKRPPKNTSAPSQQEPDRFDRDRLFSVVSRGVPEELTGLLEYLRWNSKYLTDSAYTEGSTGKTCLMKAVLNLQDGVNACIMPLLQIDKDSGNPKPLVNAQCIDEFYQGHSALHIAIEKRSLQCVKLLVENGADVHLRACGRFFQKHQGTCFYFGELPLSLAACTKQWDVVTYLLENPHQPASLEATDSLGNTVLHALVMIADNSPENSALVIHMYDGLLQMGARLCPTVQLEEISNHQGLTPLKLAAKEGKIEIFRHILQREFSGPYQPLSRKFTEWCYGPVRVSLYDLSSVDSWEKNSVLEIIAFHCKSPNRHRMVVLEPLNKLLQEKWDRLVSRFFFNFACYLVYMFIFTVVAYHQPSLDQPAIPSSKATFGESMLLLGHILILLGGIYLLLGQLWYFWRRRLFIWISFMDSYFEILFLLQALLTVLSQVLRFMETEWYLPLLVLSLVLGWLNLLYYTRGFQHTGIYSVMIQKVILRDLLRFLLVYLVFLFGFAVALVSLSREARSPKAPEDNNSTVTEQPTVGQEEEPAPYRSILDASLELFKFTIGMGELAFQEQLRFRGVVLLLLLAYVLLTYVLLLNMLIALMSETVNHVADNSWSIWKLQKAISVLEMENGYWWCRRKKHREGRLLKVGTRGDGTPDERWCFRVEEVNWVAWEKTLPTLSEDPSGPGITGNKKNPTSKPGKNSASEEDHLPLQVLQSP
# Procedure: as §1, §2
# The TRPV2 transfected cell line prepared in Example 1 was treated with 100 μM probenecid and 300 μM 2-APB.
# The TRPV2 transfected cell line prepared in Example 1 was treated with probenecid at different concentrations from 0.1 to 1,000 μM.
# Particularly, the transfected cell line of Example <3-1> and Example <3-2> was loaded with Fluo-3AM (5 μM; Sigma Aldrich, USA) in the bath solution (140 mM NaCl, 5 mM KCl, 2 mM CaCl2, 1 mM MgCl2, 10 mM HEPES; adjusted to pH 7.4 with NaOH) containing 0.02% pluronic acid (Invitrogen, USA) at 37° C. for 1 hour. Calcium imaging was performed with a confocal microscope (LSM5 Pascal, Carl Zeiss, Germany), and time-lapse images (excitation 488 nm/emission 514 nm) were collected every 3 seconds using Carl Zeiss ratio tool software (Carl Zeiss, Germany).
# The TRPA1, TRPV1, TRPV2, TRPV3, TRPV4 and TRPM8 transfected cell lines prepared by the method of Example 1 and the non-transfected HEK cell line (control group) were treated with 100 μM probenecid. Calcium imaging was performed with the transfected cell lines treated as the above by the same manner as described in Example <3-3>.
structure (smiles),measurement,setting,value
CCCN(CCC)S(=O)(=O)c1ccc(C(=O)O)cc1 [probenecid],TRPV4 activation (calcium imaging),rTRPV4,only TRPV2 was activated; also recorded: not confirmed
same,probenecid induced currents in 2-APB-sensitive trigeminal neurons,trigeminal neurons [1],exhibited outward rectifying
same,calcium influx in a trigeminal neuron group,trigeminal neurons [2],calcium influx induced
same,neurons sensitive to probenecid among neurons responding to capsaicin,trigeminal neurons [2]; 2 μM capsaicin,5 out of 111
same,share of capsaicin-sensitive neurons that responded to probenecid,trigeminal neurons [2]; 2 μM capsaicin,3.5%
same,response of 2-APB reactive neurons to probenecid,trigeminal neurons [2]; 2-APB 300 μM,responded
same,response of major capsaicin-sensitive and all capsaicin/cinnamaldehyde-sensitive neuron groups to probenecid,"trigeminal neurons [2]; capsaicin 2 μM, cinnamaldehyde 300 μM",did not exhibit probenecid induced intracellular calcium influx
same,response of menthol-reactive TRPM8 positive neurons to probenecid,trigeminal neurons [2]; menthol 400 μM,did not respond
same,TRPV2 activation (calcium imaging),rTRPV2; 100 μM probenecid,activated
same,n (Hill plot of calcium influx responses),rTRPV2; n=12-62 per experimental value,2.8
same,Kd,"rTRPV2; n=12-62 per experimental value, read-out: Kd (Hill plot of calcium influx responses)",31.9 µM
same,maximal effective dose,"rTRPV2; probenecid 0.1 to 1,000 μM, calcium influx",about 1 mM
same,EC50,"rTRPV2; probenecid 0.1 to 1,000 μM, calcium influx, read-out: EC50 (effective concentration 50%) on TRPV2",31.9 µM
